The values that follow come from paper PMC6099356 (The New Phytologist, 2018).

This test relates to HA‐SlCaM3/4/5. The format is binding, tomato (Solanum lycopersicum).

As for `NCCCCCCNS(=O)(=O)c1cccc2c(Cl)cccc12` [Peptide W7, N‐(6‐aminohexyl)‐5‐chloro‐1‐naphthalene‐sulphonamide], the “effect on GFP-SFI5/HA-SlCaM3/4/5 association” value was “significantly inhibited by the presence of CaM antagonist and Ca^2+ channel blockers”.
Turning to EDTA, the “effect on GFP-SFI5/HA-SlCaM3/4/5 association” value is “significantly inhibited by the presence of CaM antagonist and Ca^2+ channel blockers”.
The value for LaCl3 was “significantly inhibited by the presence of CaM antagonist and Ca^2+ channel blockers”.
